Test results as given in US8658649B2, “Kinase inhibitor” (Sanofi, priority 2006, dated 2014).

Tests used:
[1] = system: Collagen-induced arthritis (CIA); assay: Rat collagen induced arthritis, therapeutic dosing; assay type: in vivo
Protocol: (§1) Immunization and Challenge: Female Lewis rats were immunized on day 0 and challenged on day 7 with cII from bovine nasal mixed with Freund's incomplete adjuvant at a final collagen concentration of 1.0 mg/ml. The animals were injected at the base of the tail with 400 μg of cII.
Therapeutic Dosing Regimen: The compound of Formula I (10 and 30 mg/kg, p.o., b.i.d.) was orally administered starting on day 12 and continued through day 21.
(§2) Joint Pathology Ankle joint swelling was measured to the nearest 0.01 mm by using electronic digital calipers. Measurements were recorded 7 times throughout the study starting on day 6 and ending on day 21. Body weights were recorded on the same days. On day 21, hind paws were removed at the hairline just above the ankle and fixed in 10% neutral buffered formalin.
MicroCT analysis: Ankle joints were examined using a cone-beam μCT scanner. […] In ankle joints, the ratio of bone surface to bone volume, describing the complexity of bone surface in a certain volume, was analyzed.
Statistical Analysis For joint swelling/inflammation, data were analyzed using Everstat v.5 software and a 2-way repeated measure ANOVA with Dunnett's post test. MicroCT data were analyzed by Everstat using a 1-way ANOVA and Newman-Keuls multiple comparison test. […]

Syk = biological target: T1, Syk (Homo sapiens, UniProt P43405); assay: Syk substrate phosphorylation, Streptavidin FlashPlate; assay type: biochemical; details: 7.77 nM Flag-tagged Syk, PGT-Biotin substrate, 33P-ATP
T1 construct: Flag; made in house
Source text: • Assay Name: Spleen Tyrosine (Y) Kinase • Short Name: Syk • Assay Format: Substrate Phosphorylation • Detection Format: Streptavidin FlashPlate • Modulation: Inhibition
Streptavidin FlashPlate Plus microplates from PerkinElmer Life Sciences™ are designed for in-plate radiometric assays. The interior of each well is permanently coated with a thin layer of polystyrene-based scintillant followed by covalent binding of Streptavidin. These plates are suitable for a wide variety of assay applications which utilize biotinylated capture molecules. Poly (Glu,Tyr) 4:1 (PGT) is a random copolymer that can act as a substrate for tyrosine-specific protein kinases. The assay measures the phosphorylation of PGT-Biotin substrate by Syk. The enzyme transfers the [γ^33P]-phosphate from [γ^33P]-ATP to the polymeric substrate. The assay was run in solution in a non-binding 384-well plate. After stopping the reaction using phosphoric acid, the reaction mixture was transferred to a 384-well Streptavidin Flashplate. The biotinylated substrate was captured onto the plate and other reagents including hot ATP were washed away. Each well was then counted for radioactivity.
The enzyme reaction was run in a 384-well non-binding plate. […] Radioactivity was counted on a Top Count™ scintillation counter. […]

[2] = system: Collagen-induced arthritis (CIA); assay: Rat collagen induced arthritis, prophylactic dosing; assay type: in vivo; details: vs vehicle
Protocol: as §1
Prophylactic Dosing Regimen: The compound of Formula I (3.0, 10, and 30 mg/kg) was orally dosed (p.o.) twice daily (b.i.d.) starting on day 6 and continued through day 21.
as §2
MicroCT analysis: Ankle joints were examined using a cone-beam μCT scanner. A scout view scan was obtained first for selection of the examination volume of the specimens, followed by positioning, measurement and computational reconstruction. In ankle joints, the ratio of bone surface to bone volume, describing the complexity of bone surface in a certain volume, was analyzed.
Statistical Analysis For joint swelling/inflammation, data were analyzed using Everstat v.5 software and a 2-way repeated measure ANOVA with Dunnett's post test. MicroCT data were analyzed by Everstat using a 1-way ANOVA and Newman-Keuls multiple comparison test. Data are presented as the mean±SEM and p values of <0.05 are considered significant.

CCc1c(-c2ccc(C(C)(C)O)cc2)[nH]c2nccnc12 [compound of Formula I, 2-[4-(7-Ethyl-5H-pyrrolo[2,3-b]pyrazin-6-yl)-phenyl]-propan-2-ol]
bone erosion (ratio of bone surface to bone volume), MicroCT ([1]; 10 mg/kg or 30 mg/kg, therapeutic dosing, vs vehicle): significant decrease in bone erosion | ankle swelling/inflammation ([1]; 10 and 30 mg/kg p.o. b.i.d. from day 12, day 15-21): significantly reduced ankle swelling/inflammation | IC50 (Syk): 1.7 nM | ankle swelling/inflammation ([2]; 3.0 mg/kg p.o. b.i.d. day 6-21, on day 12 only): significantly reduced ankle swelling/inflammation | ankle swelling/inflammation ([2]; 10 mg/kg p.o. b.i.d. day 6-21, on days 12 through 19): significantly reduced ankle swelling/inflammation | ankle swelling/inflammation ([2]; 30 mg/kg p.o. b.i.d. day 6-21, from day 12 through day 21): significantly reduced ankle swelling/inflammation | bone erosion (ratio of bone surface to bone volume), MicroCT ([2]; 3, 10 or 30 mg/kg b.i.d.): significant reductions in bone erosion
